Several values for one entry are separate records, joined by “and”; a condition that tells them apart may be missing. Equal values may be shown once. Inconclusive results and toxic doses are left out.

The subject of this experiment is L1210 leukemia ip in BDF1 mice, survival T/C. In words: NCI In Vivo Anticancer Drug Screen. Data for tumor model L1210 Leukemia (intraperitoneal) in B6D2F1 (BDF1) mice. Particulars: higher = longer survival. In outline: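 Antitumor effect is assessed in tumor-bearing animals. Survival in the compound arm is compared with a vehicle-dosed control arm and expressed as their quotient.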

Where [1] appears, read: endpoint: mean survival time, dose: 100.0 mg/kg/injection, schedule: Q01DX001 (ip), vehicle: carboxymethylcellulose (CMC).
[2] abbreviates: endpoint: mean survival time, dose: 400.0 mg/kg/injection, schedule: Q01DX001 (ip), vehicle: carboxymethylcellulose (CMC).
[3] abbreviates: endpoint: mean survival time, dose: 100.0 mg/kg/injection, schedule: Q01DX009 (ip), vehicle: saline with Tween-80.
The mark [4] stands for this setting: endpoint: mean survival time, dose: 200.0 mg/kg/injection, schedule: Q01DX009 (ip), vehicle: saline with Tween-80.

With `O=[N+]([O-])c1ccc(O)c(CNCCCNCc2cc([N+](=O)[O-])ccc2O)c1`, the T/C (endpoint: mean survival time, dose: 100.0 mg/kg/injection, schedule: Q01DX001 (ip), vehicle: saline) is 102 % of control; the T/C (endpoint: mean survival time, dose: 200.0 mg/kg/injection, schedule: Q01DX001 (ip), vehicle: saline) is 98 % of control; the T/C (endpoint: mean survival time, dose: 400.0 mg/kg/injection, schedule: Q01DX001 (ip), vehicle: saline) was 102 % of control.
Consider `Clc1ccc(C2ON2C2CCCCC2)cc1` (stereo not given), for which the T/C by setting is: under setting [1], 95 % of control; (endpoint: mean survival time, dose: 200.0 mg/kg/injection, schedule: Q01DX001 (ip), vehicle: carboxymethylcellulose (CMC)) 101 % of control; under setting [2], 101 % of control.
Take `CC(C)[C@]12O[C@H]1[C@@H]1O[C@]13[C@]1(O[C@H]1C[C@H]1C4=C(C(=O)OC4)[C@@H](O)C[C@@]13C)[C@@H]2O`: the T/C was 105 % of control (endpoint: mean survival time, dose: 2.4 micrograms/kg/injection, schedule: Q01DX009 (oral), vehicle: Klucel (hydroxypropylcellulose) (HPC)); 102 % of control (endpoint: mean survival time, dose: 4.8 micrograms/kg/injection, schedule: Q01DX009 (oral), vehicle: Klucel (hydroxypropylcellulose) (HPC)); 101 % of control (endpoint: mean survival time, dose: 9.5 micrograms/kg/injection, schedule: Q01DX009 (oral), vehicle: Klucel (hydroxypropylcellulose) (HPC)); 94 % of control and 111 % of control (endpoint: mean survival time, dose: 13.0 micrograms/kg/injection, schedule: Q01DX009 (ip), vehicle: saline); 116 % of control (endpoint: mean survival time, dose: 19.0 micrograms/kg/injection, schedule: Q01DX009 (oral), vehicle: Klucel (hydroxypropylcellulose) (HPC)); 108 % of control and 110 % of control (endpoint: mean survival time, dose: 25.0 micrograms/kg/injection, schedule: Q01DX009 (ip), vehicle: saline). Besides, the T/C reads like this: (endpoint: mean survival time, dose: 38.0 micrograms/kg/injection, schedule: Q01DX009 (oral), vehicle: Klucel (hydroxypropylcellulose) (HPC)) 107 % of control; (endpoint: mean survival time, dose: 38.0 micrograms/kg/injection, schedule: Q01DX009 (oral), vehicle: saline + alcohol) 103 % of control; (endpoint: mean survival time, dose: 100.0 micrograms/kg/injection, schedule: Q01DX009 (ip), vehicle: saline) 150 % of control and 159 % of control; (endpoint: mean survival time, dose: 200.0 micrograms/kg/injection, schedule: Q01DX009 (ip), vehicle: saline) 198 % of control; (endpoint: median survival time, dose: 0.06 mg/kg/injection, schedule: Q01DX009 (ip), vehicle: saline + alcohol) 113 % of control; (endpoint: median survival time, dose: 0.06 mg/kg/injection, schedule: Q01DX009 (ip), vehicle: saline with Tween-80) 114 % of control and 124 % of control. The T/C (endpoint: median survival time, dose: 0.06 mg/kg/injection, schedule: Q01DX009 (sc), vehicle: saline + alcohol) is 102 % of control; the T/C (endpoint: median survival time, dose: 0.06 mg/kg/injection, schedule: Q04DX003 (ip), vehicle: saline + alcohol) was 98 % of control; the T/C (endpoint: median survival time, dose: 0.12 mg/kg/injection, schedule: Q01DX009 (sc), vehicle: saline + alcohol) is 107 % of control; the T/C (endpoint: median survival time, dose: 0.12 mg/kg/injection, schedule: Q04DX003 (ip), vehicle: saline + alcohol) is 106 % of control; the T/C (endpoint: median survival time, dose: 0.12 mg/kg/injection, schedule: Q08DX002 (ip), vehicle: saline + alcohol) is 102 % of control; the T/C (endpoint: median survival time, dose: 0.13 mg/kg/injection, schedule: Q01DX009 (ip), vehicle: saline + alcohol) was 156 % of control. Also, the T/C (endpoint: median survival time, dose: 0.13 mg/kg/injection, schedule: Q01DX009 (oral), vehicle: saline + alcohol) is 100 % of control and 120 % of control; the T/C (endpoint: median survival time, dose: 0.25 mg/kg/injection, schedule: Q01DX001 (ip), vehicle: saline + alcohol) was 102 % of control; the T/C (endpoint: median survival time, dose: 0.25 mg/kg/injection, schedule: Q01DX009 (ip), vehicle: saline + alcohol) is 178 % of control and 195 % of control; the T/C (endpoint: median survival time, dose: 0.25 mg/kg/injection, schedule: Q01DX009 (ip), vehicle: saline with Tween-80) is 185 % of control and 202 % of control; the T/C (endpoint: median survival time, dose: 0.25 mg/kg/injection, schedule: Q01DX009 (sc), vehicle: saline + alcohol) was 151 % of control; the T/C (endpoint: median survival time, dose: 0.25 mg/kg/injection, schedule: Q04DX003 (ip), vehicle: saline + alcohol) was 107 % of control. Further, the T/C (endpoint: median survival time, dose: 0.25 mg/kg/injection, schedule: Q08DX002 (ip), vehicle: saline + alcohol) was 109 % of control; the T/C (endpoint: median survival time, dose: 0.5 mg/kg/injection, schedule: Q01DX001 (ip), vehicle: saline + alcohol) is 113 % of control; the T/C (endpoint: median survival time, dose: 0.5 mg/kg/injection, schedule: Q01DX009 (ip), vehicle: saline + alcohol) is 95 % of control; the T/C (endpoint: median survival time, dose: 0.5 mg/kg/injection, schedule: Q04DX003 (ip), vehicle: saline + alcohol) was 113 % of control; the T/C (endpoint: median survival time, dose: 0.5 mg/kg/injection, schedule: Q08DX002 (ip), vehicle: saline + alcohol) is 114 % of control; the T/C (endpoint: median survival time, dose: 8.0 micrograms/kg/injection, schedule: Q03HX024 (ip), vehicle: saline + alcohol) is 104 % of control. Further, the T/C is, setting by setting: (endpoint: median survival time, dose: 8.0 micrograms/kg/injection, schedule: Q03HX024 (sc), vehicle: saline + alcohol) 94 % of control; (endpoint: median survival time, dose: 15.6 micrograms/kg/injection, schedule: Q03HX024 (sc), vehicle: saline + alcohol) 98 % of control; (endpoint: median survival time, dose: 16.0 micrograms/kg/injection, schedule: Q03HX024 (oral), vehicle: saline + alcohol) 98 % of control and 101 % of control; (endpoint: median survival time, dose: 31.2 micrograms/kg/injection, schedule: Q03HX008 (ip), vehicle: saline + alcohol) 117 % of control; (endpoint: median survival time, dose: 31.2 micrograms/kg/injection, schedule: Q03HX024 (ip), vehicle: saline + alcohol) 157 % of control; (endpoint: median survival time, dose: 31.2 micrograms/kg/injection, schedule: Q03HX024 (sc), vehicle: saline + alcohol) 103 % of control. The T/C by setting is: (endpoint: median survival time, dose: 31.3 micrograms/kg/injection, schedule: Q03HX024 (oral), vehicle: saline + alcohol) 110 % of control; (endpoint: median survival time, dose: 62.5 micrograms/kg/injection, schedule: Q03HX024 (ip), vehicle: saline + alcohol) 162 % of control; (endpoint: median survival time, dose: 62.5 micrograms/kg/injection, schedule: Q03HX024 (sc), vehicle: saline + alcohol) 165 % of control.
Turning to `N=C(N)Cc1ccc(CCc2ccc(CC(=N)N)cc2)cc1`, the T/C is 97 % of control (endpoint: mean survival time, dose: 12.5 mg/kg/injection, schedule: Q01DX Z (oral), vehicle: saline); 100 % of control (endpoint: mean survival time, dose: 25.0 mg/kg/injection, schedule: Q01DX Z (oral), vehicle: saline); 97 % of control (endpoint: mean survival time, dose: 50.0 mg/kg/injection, schedule: Q01DX Z (oral), vehicle: saline); 100 % of control (endpoint: mean survival time, dose: 100.0 mg/kg/injection, schedule: Q01DX Z (oral), vehicle: saline).
In the case of `CC(C)(C)SCC#CCSC(C)(C)C`, the T/C was 100 % of control (endpoint: mean survival time, dose: 50.0 mg/kg/injection, schedule: Q01DX009 (ip), vehicle: saline with Tween-80); 118 % of control under setting [3]; 103 % of control (endpoint: mean survival time, dose: 100.0 mg/kg/injection, schedule: Q04DX002 (ip), vehicle: saline with Tween-80); 96 % of control under setting [4]; 100 % of control (endpoint: mean survival time, dose: 200.0 mg/kg/injection, schedule: Q04DX002 (ip), vehicle: saline with Tween-80).
`N/C(=N\O)c1nn(C2OC(CO)C(O)C2O)c2ncnc(N)c12` (stereo not given): the T/C (endpoint: mean survival time, dose: 25.0 mg/kg/injection, schedule: Q01DX005 (ip), vehicle: saline) was 171 % of control.
In the case of `COc1ccc(/C=C/c2cc[n+](C)cc2)cc1OC`, the T/C was 111 % of control (endpoint: mean survival time, dose: 75.0 mg/kg/injection, schedule: Q01DX001 (ip), vehicle: carboxymethylcellulose (CMC)); 109 % of control (endpoint: mean survival time, dose: 150.0 mg/kg/injection, schedule: Q01DX001 (ip), vehicle: carboxymethylcellulose (CMC)); 103 % of control (endpoint: mean survival time, dose: 300.0 mg/kg/injection, schedule: Q01DX001 (ip), vehicle: carboxymethylcellulose (CMC)).
Regarding `O=[N+]([O-])c1ccc2cnn(CN3CCCCC3)c2c1`, the T/C under setting [1] was 98 % of control and the T/C under setting [2] is 98 % of control.
In the case of `CCCCCCCNC(=O)Nc1cc([N+](=O)[O-])ccc1C`, the T/C was 98 % of control under setting [3]; 98 % of control under setting [4]; 94 % of control (endpoint: mean survival time, dose: 400.0 mg/kg/injection, schedule: Q01DX009 (ip), vehicle: saline with Tween-80).
Take `C=C(c1cn(C(C)=O)c2ccccc12)c1cn(C(C)=O)c2ccccc12`: where the note is “endpoint: mean survival time, dose: 100.0 mg/kg/injection, schedule: Q04DX003 (ip), vehicle: saline with Tween-80”, the T/C was 95 % of control.
For `Cc1ccc(S(=O)(=O)N/N=C/Cc2ccccc2)cc1`, the T/C is 100 % of control (endpoint: mean survival time, dose: 100.0 mg/kg/injection, schedule: Q04DX002 (ip), vehicle: gum acacia); 100 % of control (endpoint: mean survival time, dose: 200.0 mg/kg/injection, schedule: Q04DX002 (ip), vehicle: gum acacia); 100 % of control (endpoint: mean survival time, dose: 400.0 mg/kg/injection, schedule: Q04DX002 (ip), vehicle: gum acacia).
Consider `O=C(O)c1ccc(/C=C\c2cccc(S(=O)(=O)F)c2)cc1`, for which the T/C by setting is: (endpoint: mean survival time, dose: 100.0 mg/kg/injection, schedule: Q01DX001 (ip), vehicle: saline with Tween-80) 100 % of control; (endpoint: mean survival time, dose: 200.0 mg/kg/injection, schedule: Q01DX001 (ip), vehicle: saline with Tween-80) 97 % of control; (endpoint: mean survival time, dose: 400.0 mg/kg/injection, schedule: Q01DX001 (ip), vehicle: saline with Tween-80) 92 % of control.

For the origin of these results see PubChem BioAssay AID248 (DTP/NCI, 2004).
